Source: patent US6582940B1, “Method for producing calcium pantothenate” (Daiichi Fine Chemical Co., Ltd., priority 1998, dated 2003)

Assay: hygroscopicity analysis (desiccator, relative humidity 82%, 40° C., 24 hours)
Format: physicochemical
Details: for amount of absorbed moisture: 1 g sample, relative humidity 82% (saturated aqueous potassium chloride), after 24 hours; for deliquescence in the hygroscopicity analysis: relative humidity 82%, 24 hours, macroscopic observation
Protocol: The term “nondeliquescent” used in the specification means that a substance is nonhygroscopic (in general, an amount of absorbed moisture is 5% or less at 40° C. under 82% of relative humidity after 24 hours), or not suffered from deliquescence by moisture absorption. More specifically, the term means that no deliquescence is macroscopically observed in a part or whole surface of a solid calcium pantothenate at 40° C. under 82% of the relative humidity within 24 hours. The calcium pantothenate of the present invention comprising an amount of a crystalline component sufficient to prevent deliquescence is an example of the nondeliquescent and crystalline calcium pantothenate.
This product was further dried by using a normal-pressure warm-air dryer at 80° C. for 30 minutes and milled in a mortar, and then sized through a filter No.83 and subjected to a hygroscopicity analysis. The sample (1 g) was placed in a desiccator adjusted to relative humidity of 82% with a saturated aqueous solution of potassium chloride at 40° C., and an amount of absorbed moisture after 24 hours was determined. […] An amorphous was dried in the same manner and the amount of absorbed moisture was determined under the same conditions. […] Moreover, the powder X-ray diffraction analysis of the aforementioned product gave the characteristic peak indicated by the arrow, which verified that the product was a crystalline substance containing the monohydrate (FIG. 1).

Substance | amount of absorbed moisture [%] | deliquescence in the hygroscopicity analysis
calcium pantothenate [Example 3] | 0.8 | no deliquescence was observed
calcium pantothenate [Example 2] | 0.7 | no deliquescence was observed
monocalcium bis[(R)-N-(2,4-dihydroxy-3,3-dimethylbutyryl)-β-alaninate] [amorphous calcium pantothenate, reference compound] | 7.0 | macroscopically apparent deliquescence of the surface was observed
